BindingDB's records for doi:10.1021/jm061242y (Elan Pharmaceuticals, 2007)

Molecular target: Beta-secretase 1 (Homo sapiens, UniProt P56817)
Assay: BACE Enzyme Inhibition Assay
Conditions: pH 4.8; 37 °C
Description: Beta-cleavage ELISA assays were carried out in reaction buffer containing enzyme, substrate MBP-C125, and test compounds. Generated beta-cleaved product was detected using biotinylated Sw192 or biotinyated Wt192 as specific reporter antibodies and quantitated against the appropriate MBP-C125 standard.

Beta-secretase 1, sequence (P56817 whole entry): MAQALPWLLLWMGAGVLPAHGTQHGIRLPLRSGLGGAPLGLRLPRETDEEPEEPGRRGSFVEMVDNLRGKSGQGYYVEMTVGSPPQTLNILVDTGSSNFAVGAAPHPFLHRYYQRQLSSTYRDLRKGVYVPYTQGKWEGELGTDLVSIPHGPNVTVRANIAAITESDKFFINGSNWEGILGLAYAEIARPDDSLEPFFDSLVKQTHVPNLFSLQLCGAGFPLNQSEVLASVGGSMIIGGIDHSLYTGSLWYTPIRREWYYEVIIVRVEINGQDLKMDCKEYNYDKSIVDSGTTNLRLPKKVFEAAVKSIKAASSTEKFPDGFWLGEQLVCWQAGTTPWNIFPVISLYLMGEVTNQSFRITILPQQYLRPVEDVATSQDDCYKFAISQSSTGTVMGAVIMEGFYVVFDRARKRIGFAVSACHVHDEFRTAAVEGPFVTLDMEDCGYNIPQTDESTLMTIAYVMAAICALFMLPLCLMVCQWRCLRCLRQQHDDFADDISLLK

## CCCN(CCC)C(=O)c1cccc(C(=O)N[C@@H](Cc2cc(F)cc(F)c2)[C@@H](O)C[C@@H](C)C(=O)NCC(C)C)c1
  IC50: 0.03 µM

## CCCN(CCC)C(=O)c1cccc(C(=O)N[C@@H](Cc2cc(F)cc(F)c2)[C@@H](O)CN[C@@H](C)C(=O)NCC(C)C)c1 [N-[(1S,2S)-1-(3,5-difluorobenzyl)-2-hydroxy-3-({(1S)-1-methyl-2-[(2-methylpropyl)amino]-2-oxoethyl}amino)propyl]-N,N-dipropylbenzene-1,3-dicarboxamide]
  IC50: 68 µM
